How the values were obtained:
Type in all cases: in vivo
[1] = tested on: corn; test: Test Example 4: effect on crop by soil treatment (symbol c); conditions: 320 g/ha
In short: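 Seeds were sown in spots on sterilized diluvial soil in a plastic box and covered with about 1.5 cm of soil. Plants were then grown in a greenhouse at 25° C. to 30° C.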

[2] = tested on: Echinochloa crus-galli var. crus-galli; test: Test Example 3: herbicidal effect by foliage application, Wagner pot (symbol H); conditions: application herbicide amount 320 g/ha
In short: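 Scoring took place 3 weeks after application, using fixed criteria. Plants had been raised from seed for 14 days at 25 to 30 °C in submerged alluvial soil before a diluted emulsion of the test compound was sprayed uniformly on the leaves.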

[3] = tested on: soybean; test: Test Example 4: effect on crop by soil treatment (symbol d); conditions: 320 g/ha
In short: (§1)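 Crop seeds, among them rice, wheat, beet and rapeseed, were sown in sterilized diluvial soil and covered with about 1.5 cm of soil. Boxes were kept in a greenhouse at 25° C. to 30° C. for plant growth.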

[4] = tested on: directly sowed rice plant; test: Test Example 3: effect on crop by foliage application, Wagner pot (symbol b); conditions: application herbicide amount 320 g/ha
In short: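 Alluvial soil in a 1/10000-are Wagner pot was flooded to a water depth of 0.1–0.5 cm. Echinochloa crus-galli var. crus-galli, Leptochloa chinensis, Cyperus difformis and rice were sown into it and grown in a greenhouse at 25–30 °C.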

[5] = tested on: Stellaria media; test: Test Example 5: herbicidal effect by foliage application, plastic box (symbol P); conditions: 320 g/ha, 3 weeks after application
In short: (§2)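 Seeds were sown in sterilized diluvial soil, covered with about 1.5 cm of soil and grown 14 days in a greenhouse at 25° C. to 30° C. An emulsifiable formulation diluted in water to a set rate was sprayed over foliage, and injury was scored 3 weeks later.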

[6] = tested on: Lolium multiflorum Lam.; test: Test Example 4: herbicidal effect by soil treatment (symbol K); conditions: 320 g/ha
In short: (§3)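 Seeds were sown in sterilized diluvial soil, covered with about 1.5 cm of soil, and the soil surface was sprayed with a water-diluted emulsion of the compound at a predetermined rate. Plants grew in a greenhouse at 25° C. to 30° C.; effects were scored visually 3 weeks after application.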

[7] = tested on: Avena fatua; test: Test Example 5: herbicidal effect by foliage application, plastic box (symbol I); conditions: 320 g/ha, 3 weeks after application
In short: as §2

[8] = tested on: rapeseed; test: Test Example 4: effect on crop by soil treatment (symbol g); conditions: 320 g/ha
In short: as §1

[9] = tested on: Setaria viridis; test: Test Example 4: herbicidal effect by soil treatment (symbol G); conditions: 320 g/ha
In short: as §3

[10] = tested on: wheat; test: Test Example 5: effect on crop by foliage application, plastic box (symbol e); conditions: 320 g/ha, 3 weeks after application
In short: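 Greenhouse culture at 25° C. to 30° C. followed spot-like sowing into sterilized diluvial soil, with seed covered by roughly 1.5 cm of soil.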

[11] = tested on: Echinochloa oryzacola Vasing.; test: Test Example 2: herbicidal activity, application during weed generation in submerged conditions (symbol A); conditions: Table 23; application herbicide amount 320 g/ha; grade 0-5 by criteria of Test Example 1
In short: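 Read-out: herbicidal effect on each species rated on a visual scale 3 weeks after treatment. Plants were raised together from seed in flooded alluvial soil (4 cm water) at 25° C. to 30° C. and treated at one to two leaves by water-surface application of diluted emulsion.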

SMILES	c: corn, effect grade on crop [1]	herbicidal effect on H (Echinochloa crus-galli var. crus-galli), grade 0-5 [2]	d: soybean, effect grade on crop [3]	effect on crop b (directly sowed rice plant), grade 0-5 [4]	P: Stellaria media, herbicidal effect (criteria 0-5) [5]	K: Lolium multiflorum Lam., herbicidal effect grade [6]	I: Avena fatua, herbicidal effect (criteria 0-5) [7]	g: rapeseed, effect grade on crop [8]	G: Setaria viridis, herbicidal effect grade [9]	e: wheat, effect on crop (criteria 0-5) [10]	Herbicidal effect grade, A: Echinochloa oryzacola Vasing. [11]
CON=C(C)CC1CC(OS(=O)(=O)C2CC2)=C(c2c(C)cc(C)cc2C)C1=O (stereo not drawn) [1-143]	0 (Herbicidal ratio of 5% or lower (almost no effect))	4 (Herbicidal ratio of 70% or higher and lower than 90%)	0 (Herbicidal ratio of 5% or lower (almost no effect))	5 (Herbicidal ratio of 90% or more (almost completely withered))	0 (Herbicidal ratio of 5% or lower (almost no effect))	4 (Herbicidal ratio of 70% or higher and lower than 90%)	5 (Herbicidal ratio of 90% or more (almost completely withered))	0 (Herbicidal ratio of 5% or lower (almost no effect))	1 (Herbicidal ratio of 5% or higher and lower than 20%)	3 (Herbicidal ratio of 40% or higher and lower than 70%)	4 (Herbicidal ratio of 70% or higher and lower than 90%)
CON=C(C)CC1CC(OS(=O)(=O)CC[Si](C)(C)C)=C(c2c(C)cc(C)cc2C)C1=O (stereo not drawn) [1-144]	3 (Herbicidal ratio of 40% or higher and lower than 70%)	5 (Herbicidal ratio of 90% or more (almost completely withered))	0 (Herbicidal ratio of 5% or lower (almost no effect))	5 (Herbicidal ratio of 90% or more (almost completely withered))	2 (Herbicidal ratio of 20% or higher and lower than 40%)	4 (Herbicidal ratio of 70% or higher and lower than 90%)	5 (Herbicidal ratio of 90% or more (almost completely withered))	2 (Herbicidal ratio of 20% or higher and lower than 40%)	5 (Herbicidal ratio of 90% or more (almost completely withered))	4 (Herbicidal ratio of 70% or higher and lower than 90%)	5 (Herbicidal ratio of 90% or more (almost completely withered))
CON=C(C)CC1CC(OC(=O)OCc2ccccc2)=C(c2c(C)cc(C)cc2C)C1=O (stereo not drawn) [1-145]	5 (Herbicidal ratio of 90% or more (almost completely withered))	5 (Herbicidal ratio of 90% or more (almost completely withered))	0 (Herbicidal ratio of 5% or lower (almost no effect))	5 (Herbicidal ratio of 90% or more (almost completely withered))	2 (Herbicidal ratio of 20% or higher and lower than 40%)	5 (Herbicidal ratio of 90% or more (almost completely withered))	5 (Herbicidal ratio of 90% or more (almost completely withered))	4 (Herbicidal ratio of 70% or higher and lower than 90%)	5 (Herbicidal ratio of 90% or more (almost completely withered))	5 (Herbicidal ratio of 90% or more (almost completely withered))	5 (Herbicidal ratio of 90% or more (almost completely withered))
C=CCOC(=O)OC1=C(c2c(C)cc(C)cc2C)C(=O)C(CC(C)=NOC)C1 (stereo not drawn) [1-146]	1 (Herbicidal ratio of 5% or higher and lower than 20%)	5 (Herbicidal ratio of 90% or more (almost completely withered))	0 (Herbicidal ratio of 5% or lower (almost no effect))	5 (Herbicidal ratio of 90% or more (almost completely withered))	3 (Herbicidal ratio of 40% or higher and lower than 70%)	5 (Herbicidal ratio of 90% or more (almost completely withered))	5 (Herbicidal ratio of 90% or more (almost completely withered))	5 (Herbicidal ratio of 90% or more (almost completely withered))	5 (Herbicidal ratio of 90% or more (almost completely withered))	5 (Herbicidal ratio of 90% or more (almost completely withered))	5 (Herbicidal ratio of 90% or more (almost completely withered))
COCCOC(=O)OC1=C(c2c(C)cc(C)cc2C)C(=O)C(CC(C)=NOC)C1 (stereo not drawn) [1-147]	5 (Herbicidal ratio of 90% or more (almost completely withered))	5 (Herbicidal ratio of 90% or more (almost completely withered))	0 (Herbicidal ratio of 5% or lower (almost no effect))	5 (Herbicidal ratio of 90% or more (almost completely withered))	3 (Herbicidal ratio of 40% or higher and lower than 70%)	5 (Herbicidal ratio of 90% or more (almost completely withered))	5 (Herbicidal ratio of 90% or more (almost completely withered))	4 (Herbicidal ratio of 70% or higher and lower than 90%)	5 (Herbicidal ratio of 90% or more (almost completely withered))	5 (Herbicidal ratio of 90% or more (almost completely withered))	5 (Herbicidal ratio of 90% or more (almost completely withered))
CON=C(C)CC1CC(OC(=O)C(C)(C)c2ccc(Cl)cc2)=C(c2c(C)cc(C)cc2C)C1=O (stereo not drawn) [1-148]	3 (Herbicidal ratio of 40% or higher and lower than 70%)	5 (Herbicidal ratio of 90% or more (almost completely withered))	0 (Herbicidal ratio of 5% or lower (almost no effect))	5 (Herbicidal ratio of 90% or more (almost completely withered))	3 (Herbicidal ratio of 40% or higher and lower than 70%)	5 (Herbicidal ratio of 90% or more (almost completely withered))	5 (Herbicidal ratio of 90% or more (almost completely withered))	4 (Herbicidal ratio of 70% or higher and lower than 90%)	5 (Herbicidal ratio of 90% or more (almost completely withered))	5 (Herbicidal ratio of 90% or more (almost completely withered))	5 (Herbicidal ratio of 90% or more (almost completely withered))
